Reference: patent publication US12435108B2, “Teixobactin analogue and use thereof” (SUNSHINE LAKE PHARMA CO., LTD., priority 2019, dated 2025)
Where two headings read alike, the source gives them in different places.

Columns and labels:
[1] = test system: MRSA (ATCC43300)
Procedure: (§1) For the determination of the minimum inhibitory concentration (MIC), according to the CLSI standard, the minimum inhibitory concentration of 3 ATCC standard strains (2 strains of Staphylococcus aureus and 1 strain of Enterococcus faecium) was tested by two independent repeated experiments. Compounds were diluted two-fold in a 96-well plate from the highest detection concentration of 64 μg/mL. The test plate was placed in a common incubator and incubated at 35±2° C. for 20-24 hours. The growth of bacteria in the wells was observed and recorded. Inoculation method: 5-10 bacterial single colonies from the solid medium plate resuspended in 500 μL of 1.02×CAMHB, and then OD600 was adjusted to 0.1-0.15 with a spectrophotometer; then the bacteria were diluted 300-fold with 1.02×CAMHB to ˜2×10^5 CFU/ml (stepwise dilution, first 10-fold and then 30-fold), and the prepared bacterial inoculum was inoculated in 96-well plate within 15 minutes, the number of inoculated bacteria could be obtained by plate count. Colony count: the inoculated bacteria was diluted with liquid medium from 10^−1 to 10^−3 (such as 100 μL of bacterial inoculum+900 μL of 1.02×CAMHB); 100 μl of the above bacterial dilution was evenly spread on a TSA or TSA II plate, with 2 replicates per dilution. After the medium was absorbed by TSA or TSA II for 10 minutes, the plate was inverted and cultured at 35±2° C. for 24 hours in an incubator. Record of minimum inhibitory concentration and statistics of colony count: the minimum inhibitory concentration of each compound was recorded referring to the CLSI standard; the number of colonies of bacterial inoculum of different dilutions on the TSA or TSA II plate was counted and the amount of bacterial inoculation was calculated. Selection of strain types: MRSA (ATCC43300), MSSA (ATCC29213) and VRE (ATCC700221).

[2] = test system: MSSA (ATCC29213)
Procedure: as §1

[3] = test system: VRE (ATCC700221); details: ATCC700221
Procedure: as §1

Structure (SMILES) | In vitro antibacterial activity MIC, MRSA(ATCC43300) ([1]; 96-well plate, CAMHB, 35±2 °C, 20-24 hours, highest concentration 64 μg/mL) [µg/mL] | In vitro antibacterial activity MIC, MSSA(ATCC29213) ([2]; Test Method 2: 96-well plate, CAMHB, 35±2 °C, 20-24 hours, highest concentration 64 μg/mL) [µg/mL] | In vitro antibacterial activity MIC, VRE(ATCC700221) [3] [µg/mL] | In vitro antibacterial activity MIC, MRSA(ATCC43300) ([1]; ATCC43300) [µg/mL] | In vitro antibacterial activity MIC, MSSA(ATCC29213) ([2]; ATCC29213) [µg/mL]
CC[C@H](C)[C@H](NC(=O)[C@@H](Cc1ccccc1)NC)C(=O)N[C@@H](CO)C(=O)N[C@H](CCC(N)=O)C(=O)N[C@@H](C(=O)N[C@H](C(=O)N[C@@H](CO)C(=O)N[C@H]1C(=O)N[C@@H](C)C(=O)N[C@@]2(C[C@H]2CCO)C(=O)N[C@@H]([C@@H](C)CC)C(=O)O[C@H]1C)[C@@H](C)CC)[C@@H](C)CC.O=C(O)C(F)(F)F [Example 12] | 8 | 8 | – | – | –
CC[C@H](C)[C@H](NC(=O)[C@@H](Cc1csc2ccccc12)NC)C(=O)N[C@@H](CO)C(=O)N[C@H](CCC(N)=O)C(=O)N[C@@H](C(=O)N[C@H](C(=O)N[C@@H](CO)C(=O)N[C@H]1C(=O)N[C@@H](C)C(=O)N[C@@]2(C[C@H]2CC(F)F)C(=O)N[C@@H]([C@@H](C)CC)C(=O)O[C@H]1C)[C@@H](C)CC)[C@@H](C)CC.O=C(O)C(F)(F)F [Example 14] | – | – | 8 | 4 | 4
CC[C@H](C)[C@H](NC(=O)[C@@H](Cc1csc2ccccc12)NC)C(=O)N[C@@H](CO)C(=O)N[C@H](CCC(N)=O)C(=O)N[C@@H](C(=O)N[C@H](C(=O)N[C@@H](CO)C(=O)N[C@H]1C(=O)N[C@@H](C)C(=O)NC2(CC2)C(=O)N[C@@H]([C@@H](C)CC)C(=O)O[C@H]1C)[C@@H](C)CC)[C@@H](C)CC.O=C(O)C(F)(F)F [Example 15] | – | – | 8 | 4 | 4
C=C[C@H]1C[C@]12NC(=O)[C@H](C)NC(=O)[C@H](NC(=O)[C@H](CO)NC(=O)[C@@H](NC(=O)[C@H](NC(=O)[C@@H](CCC(N)=O)NC(=O)[C@H](CO)NC(=O)[C@@H](NC(=O)[C@@H](Cc1csc3ccccc13)NC)[C@@H](C)CC)[C@@H](C)CC)[C@@H](C)CC)[C@H](C)OC(=O)[C@H]([C@@H](C)CC)NC2=O.O=C(O)C(F)(F)F [Example 16] | – | – | 4 | 4 | 4
CC[C@H](C)[C@H](NC(=O)[C@@H](Cc1csc2ccccc12)NC)C(=O)N[C@@H](CO)C(=O)N[C@H](CCC(N)=O)C(=O)N[C@@H](C(=O)N[C@H](C(=O)N[C@@H](CO)C(=O)N[C@H]1C(=O)N[C@@H](C)C(=O)NC2(CCCCCC2)C(=O)N[C@@H]([C@@H](C)CC)C(=O)O[C@H]1C)[C@@H](C)CC)[C@@H](C)CC.O=C(O)C(F)(F)F [Example 17] | – | – | 8 | 4 | 4
CC[C@H](C)[C@H](NC(=O)[C@@H](Cc1ccc(-c2ccccc2)cc1)NC)C(=O)N[C@@H](CO)C(=O)N[C@H](CCC(N)=O)C(=O)N[C@@H](C(=O)N[C@H](C(=O)N[C@@H](CO)C(=O)N[C@H]1C(=O)N[C@@H](C)C(=O)NC2(CC2)C(=O)N[C@@H]([C@@H](C)CC)C(=O)O[C@H]1C)[C@@H](C)CC)[C@@H](C)CC.O=C(O)C(F)(F)F [Example 18] | – | – | 2 | 2 | 2
CC[C@H](C)[C@H](NC(=O)[C@@H](Cc1ccc(-c2ccccc2)cc1)NC)C(=O)N[C@@H](CO)C(=O)N[C@H](CCC(N)=O)C(=O)N[C@@H](C(=O)N[C@H](C(=O)N[C@@H](CO)C(=O)N[C@H]1C(=O)N[C@@H](C)C(=O)NC2(CCCCCC2)C(=O)N[C@@H]([C@@H](C)CC)C(=O)O[C@H]1C)[C@@H](C)CC)[C@@H](C)CC.O=C(O)C(F)(F)F [Example 19] | – | – | 4 | 4 | 4
C=C[C@H]1C[C@]12NC(=O)[C@H](C)NC(=O)[C@H](NC(=O)[C@H](CO)NC(=O)[C@@H](NC(=O)[C@H](NC(=O)[C@@H](CCC(N)=O)NC(=O)[C@H](CO)NC(=O)[C@@H](NC(=O)[C@@H](Cc1ccc(-c3ccccc3)cc1)NC)[C@@H](C)CC)[C@@H](C)CC)[C@@H](C)CC)[C@H](C)OC(=O)[C@H]([C@@H](C)CC)NC2=O.O=C(O)C(F)(F)F [Example 20] | – | – | 4 | 4 | 4
CC[C@H](C)[C@H](NC(=O)[C@@H](Cc1ccc(-c2ccc(-c3ccccc3)cc2)cc1)NC)C(=O)N[C@@H](CO)C(=O)N[C@H](CCC(N)=O)C(=O)N[C@@H](C(=O)N[C@H](C(=O)N[C@@H](CO)C(=O)N[C@H]1C(=O)N[C@@H](C)C(=O)NC2(CC2)C(=O)N[C@@H]([C@@H](C)CC)C(=O)O[C@H]1C)[C@@H](C)CC)[C@@H](C)CC.O=C(O)C(F)(F)F [Example 21] | – | – | 8 | 8 | 8
C=C[C@H]1C[C@]12NC(=O)[C@H](C)NC(=O)[C@H](NC(=O)[C@H](CO)NC(=O)[C@@H](NC(=O)[C@H](NC(=O)[C@@H](CCC(N)=O)NC(=O)[C@H](CO)NC(=O)[C@@H](NC(=O)[C@@H](Cc1ccc3ccccc3c1)NC)[C@@H](C)CC)[C@@H](C)CC)[C@@H](C)CC)[C@H](C)OC(=O)[C@H]([C@@H](C)CC)NC2=O.O=C(O)C(F)(F)F [Example 22] | – | – | 4 | 2 | 2
CC[C@H](C)[C@H](NC(=O)[C@@H](Cc1ccc2ccccc2c1)NC)C(=O)N[C@@H](CO)C(=O)N[C@H](CCC(N)=O)C(=O)N[C@@H](C(=O)N[C@H](C(=O)N[C@@H](CO)C(=O)N[C@H]1C(=O)N[C@@H](C)C(=O)NC2(CC2)C(=O)N[C@@H]([C@@H](C)CC)C(=O)O[C@H]1C)[C@@H](C)CC)[C@@H](C)CC.O=C(O)C(F)(F)F [Example 23] | – | – | 4 | 2 | 4
CC[C@H](C)[C@H](NC(=O)[C@@H](Cc1ccc2ccccc2c1)NC)C(=O)N[C@@H](CO)C(=O)N[C@H](CCC(N)=O)C(=O)N[C@@H](C(=O)N[C@H](C(=O)N[C@@H](CO)C(=O)N[C@H]1C(=O)N[C@@H](C)C(=O)NC2(CCCCCC2)C(=O)N[C@@H]([C@@H](C)CC)C(=O)O[C@H]1C)[C@@H](C)CC)[C@@H](C)CC.O=C(O)C(F)(F)F [Example 24] | – | – | 4 | 4 | 4
CC[C@H](C)[C@H](NC(=O)[C@@H](Cc1ccc(-c2ccc(Oc3ccccc3)cc2)cc1)NC)C(=O)N[C@@H](CO)C(=O)N[C@H](CCC(N)=O)C(=O)N[C@@H](C(=O)N[C@H](C(=O)N[C@@H](CO)C(=O)N[C@H]1C(=O)N[C@@H](C)C(=O)NC2(CC2)C(=O)N[C@@H]([C@@H](C)CC)C(=O)O[C@H]1C)[C@@H](C)CC)[C@@H](C)CC.O=C(O)C(F)(F)F [Example 25] | – | – | 4 | 4 | 4
